# Results taken from patent publication EP4813383A1, “USE OF TAFAMIDIS AND PHARMACEUTICALLY ACCEPTABLE SALT THEREOF IN PREVENTION, ALLEVIATION, OR TREATMENT OF DISEASES ASSOCIATED WITH HIF-2a” (Huaya Jiyuan (Shenzhen) Pharmaceutical Co., Ltd., priority 2024, dated 2025).
# pEC50: −log10 of the molar value. Counter-ions that a name gives are not always drawn.
# Molecular target: T1, HIF-2α (Homo sapiens, UniProt Q99814)
# T1 construct: 786-O is a renal carcinoma cell line that predominantly expresses HIF-2α and lacks functional HIF-1α; endogenous in cells; host or cells: 786-O cells stably carrying an HRE-driven luciferase reporter
# T1 sequence (Q99814 whole entry): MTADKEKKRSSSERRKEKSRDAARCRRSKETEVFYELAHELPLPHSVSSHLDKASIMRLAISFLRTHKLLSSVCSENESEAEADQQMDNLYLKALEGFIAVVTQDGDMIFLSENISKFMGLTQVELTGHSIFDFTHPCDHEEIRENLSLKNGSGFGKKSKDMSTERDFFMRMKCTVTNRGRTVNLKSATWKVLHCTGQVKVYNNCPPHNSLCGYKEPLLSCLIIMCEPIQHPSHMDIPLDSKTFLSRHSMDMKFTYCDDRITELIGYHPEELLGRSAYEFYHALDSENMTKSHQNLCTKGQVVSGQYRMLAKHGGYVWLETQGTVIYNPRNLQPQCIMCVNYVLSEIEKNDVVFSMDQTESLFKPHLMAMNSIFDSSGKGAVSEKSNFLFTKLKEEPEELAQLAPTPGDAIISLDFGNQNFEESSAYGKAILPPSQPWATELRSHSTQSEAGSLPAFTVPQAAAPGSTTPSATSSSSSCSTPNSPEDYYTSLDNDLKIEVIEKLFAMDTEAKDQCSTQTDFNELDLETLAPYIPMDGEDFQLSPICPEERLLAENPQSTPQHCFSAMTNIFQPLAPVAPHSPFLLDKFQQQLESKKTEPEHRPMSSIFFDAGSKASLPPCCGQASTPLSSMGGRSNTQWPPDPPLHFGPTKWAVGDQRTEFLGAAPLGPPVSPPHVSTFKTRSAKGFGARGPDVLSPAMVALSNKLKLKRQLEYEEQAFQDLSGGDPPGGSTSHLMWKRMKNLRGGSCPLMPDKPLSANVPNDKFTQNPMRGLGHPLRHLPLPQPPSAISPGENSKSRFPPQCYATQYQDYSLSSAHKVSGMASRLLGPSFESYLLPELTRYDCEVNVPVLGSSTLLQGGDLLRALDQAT
# T1 sequence (P27540 whole entry partner): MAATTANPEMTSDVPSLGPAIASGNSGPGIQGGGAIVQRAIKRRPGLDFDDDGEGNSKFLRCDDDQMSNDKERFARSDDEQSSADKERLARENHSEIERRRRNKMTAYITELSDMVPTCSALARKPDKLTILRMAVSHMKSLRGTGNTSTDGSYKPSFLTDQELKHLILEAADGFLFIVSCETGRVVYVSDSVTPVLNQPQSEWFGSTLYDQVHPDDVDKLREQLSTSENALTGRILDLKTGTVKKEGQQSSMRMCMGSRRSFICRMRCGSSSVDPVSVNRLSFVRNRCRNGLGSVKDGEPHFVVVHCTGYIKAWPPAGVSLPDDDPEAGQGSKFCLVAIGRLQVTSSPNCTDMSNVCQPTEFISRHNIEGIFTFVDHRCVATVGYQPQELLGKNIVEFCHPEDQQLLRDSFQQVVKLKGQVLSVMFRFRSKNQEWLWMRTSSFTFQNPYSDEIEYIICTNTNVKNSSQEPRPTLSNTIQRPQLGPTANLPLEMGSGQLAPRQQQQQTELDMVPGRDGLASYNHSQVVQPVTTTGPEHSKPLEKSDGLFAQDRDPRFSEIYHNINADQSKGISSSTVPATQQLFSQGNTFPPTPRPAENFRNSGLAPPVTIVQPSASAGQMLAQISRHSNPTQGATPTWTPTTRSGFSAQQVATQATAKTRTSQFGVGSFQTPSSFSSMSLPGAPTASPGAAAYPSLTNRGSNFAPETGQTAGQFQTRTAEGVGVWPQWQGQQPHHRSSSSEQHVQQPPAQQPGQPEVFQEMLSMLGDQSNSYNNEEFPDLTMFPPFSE
# Experiment: Luciferase reporter gene assay (HRE-driven luciferase in stably transfected 786-O cells)
# Assay type: cell-based
# Text: Experimental principles: 786-O is a renal carcinoma cell line that predominantly expresses HIF-2α and lacks functional HIF-1α. This characteristic makes 786-O cells an ideal model for studying HIF-2α transcriptional activity and related signaling pathways. In the luciferase reporter gene assay, a 786-O monoclonal cell line that stably expresses hypoxia response element (HRE)-driven luciferase (Luc) activity is obtained through puromycin selection. The HIF-2α agonist promotes dimerization of HIF-2α and HIF-β, and activates an HRE promoter. By measuring fluorescence intensity, luciferase activity can be determined, thereby assessing the ability of the HIF-2α agonist to promote transcription.
# Experimental method: A total of 6000 stably transfected 786-O cells stably containing HRE and Luc sequences are seeded in each well of a 96-well plate, and 100 µL of RPMI-1640 culture medium containing 10% fetal bovine serum is added to each well. After 24 hours, a compound at a corresponding concentration is added to each well. A blank group is set as a control. Only a DMSO solvent is added in the well of the blank group. For initial compound screening, both tafamidis and tafamidis meglumine are tested at two concentrations: 2 µM and 20 µM. For concentration-gradient determination, each concentration is tested in triplicate. After co-incubation for 24 hours, the culture medium is discarded, and 20 µL of firefly luciferase reporter gene cell lysis buffer (RG126M, Beyotime) is added to each well. The 96-well plate is shaken on a microplate shaker for 10 minutes. After shaking, 10 µL of lysate is transferred into a white opaque plate, and then 10 µL of Steady-Lumi™ firefly luciferase assay reagent (RG058S, Beyotime) is added to each well. Finally, luminescence is measured using a microplate reader (Agilent Synergy Neo2). E20 represents the effect of the compound at a 20 µM concentration, and is calculated as: E20 = fluorescence value of the 20 µM well ÷ fluorescence value of the blank control × 100%. E2 represents the effect of the compound at a 2 µM concentration, and is calculated as: E2 = fluorescence value of the 2 µM well ÷ fluorescence value of the blank control × 100%. EC50 is the compound concentration at which the agonistic efficacy is increased by 50% relative to the blank control. The agonistic efficacy of a compound is determined by calculating the concentration (EC50) required to achieve a 50% increase in the fluorescence activity relative to the blank control and a maximum activation percentage (Emax). The maximum activation percentage (Emax) of an agonist refers to a ratio, expressed as a percentage, of the fluorescence value corresponding to the maximal effect (observed maximal response) induced when the agonist concentration reaches receptor-binding saturation in a particular receptor system, to the fluorescence value of the receptor system in the absence of agonist. In this experiment, Vyndaqel is directly used in place of tafamidis meglumine.
compound,measurement,setting,value
"O=C(O)c1ccc2nc(-c3cc(Cl)cc(Cl)c3)oc2c1 [tafamidis meglumine, 1-deoxy-1-(methylamino)-D-glucitol salt of 2-(3,5-dichlorophenyl)-1,3-benzoxazole-6-carboxylic acid]",agonistic efficacy at a 2 µM concentration (E2),"2 µM, 24 hours co-incubation, fluorescence value as % of blank control (DMSO)",122%
same,agonistic efficacy at a 20 µM concentration (E20),"20 µM, 24 hours co-incubation, fluorescence value as % of blank control (DMSO)",223%
same,pEC50,"EC50, concentration required for a 50% increase in fluorescence activity relative to the blank control, 24 hours",6.01
same,Emax (maximum activation percentage),maximal response as % of fluorescence without agonist,228%
